Experimental data from ChEMBL document CHEMBL5214964 (Bioorg Med Chem Lett, 2022).

Key:
[1] = in vivo; conditions: rat, plasma, ip, 20 mg/kg
[2] = in vivo; conditions: rat, synovial fluid, ip, 20 mg/kg
[3] = in vivo; conditions: rat, plasma, ip, 20 mg/kg; remark: listed apart in the source
[4] = in vivo; conditions: rat, plasma, ip, 20 mg/kg; remark: listed apart in the source

concentration at 4 h [1]: 57 µM | concentration at 4 h [2]: 3.27 µM | concentration at 1 h [3]: 115 µM | concentration at 2 h [4]: 85 µM
Compound: NCCNS(=O)(=O)c1ccc(-c2ccc(CSc3nc4c(c(=O)[nH]3)CCC4)cc2)cc1
